Values quoted from earlier work, collected in publication PMC4331071 (Clinical cancer research : an official journal of the …, 2013).

Test system: GRP78

efficacy among GRP78 binding peptides: highest efficacy
Sequence: WIFPWIQL
